Consider 32 molecules from patent EP4722209A1 (Beijing Shenogen Pharma Group, priority 2023, dated 2024).

The target in the test is T1, ERα (Homo sapiens, UniProt P03372).
T1 construct: host or cells: MCF-7
T1 sequence (P03372 1-595): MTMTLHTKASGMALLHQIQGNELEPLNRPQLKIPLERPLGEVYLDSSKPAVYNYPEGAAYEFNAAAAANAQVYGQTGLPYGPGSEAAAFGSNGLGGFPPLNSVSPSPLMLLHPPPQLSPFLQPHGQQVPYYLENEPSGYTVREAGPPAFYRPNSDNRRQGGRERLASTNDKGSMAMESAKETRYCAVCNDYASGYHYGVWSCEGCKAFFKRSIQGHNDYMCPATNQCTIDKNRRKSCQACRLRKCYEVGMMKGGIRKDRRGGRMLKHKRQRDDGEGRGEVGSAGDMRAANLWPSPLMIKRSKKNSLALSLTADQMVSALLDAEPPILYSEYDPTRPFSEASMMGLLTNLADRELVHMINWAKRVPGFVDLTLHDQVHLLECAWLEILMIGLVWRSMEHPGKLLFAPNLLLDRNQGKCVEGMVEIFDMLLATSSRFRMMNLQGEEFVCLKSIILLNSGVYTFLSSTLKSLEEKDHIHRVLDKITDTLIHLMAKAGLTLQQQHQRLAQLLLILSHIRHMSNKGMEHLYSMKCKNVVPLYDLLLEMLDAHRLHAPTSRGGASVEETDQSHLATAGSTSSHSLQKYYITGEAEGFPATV
Briefly: ER degradation activity in MCF-7 cells (Western blot, grayscale intensity). It is filed as cell-based. The conditions noted are these: 6 hours treatment, 1 nM to 100 nM, concentration required to degrade 50% of the target protein. The procedure: ERα-positive human breast cancer cells MCF-7 (ATCC, HTB-22) were cultured with EMEM medium (ATCC, catalog number 30-2003) containing 10% fetal bovine serum (Thermo Fisher, catalog number 10099141) and 10 µg/mL bovine insulin in 25 cm^2 or 75 cm^2 plastic tissue culture flasks in a 37 °C incubator with 5% CO2. The cells were passaged 2 to 3 times per week. MCF-7 cells were seeded in 6-well plate at 1×10^6 cells/well with 1.8 mL culture medium per well, and cultured in a 37 °C incubator with 95% air and 5% CO2. After 24 hours, the test compounds were added: the compounds were serially diluted 10-fold in DMSO starting from 10 mM (dissolved in DMSO) to prepare gradient stock solutions. A complete culture medium containing 1% DMSO was prepared for further dilution, temporarily named as the "dilution buffer." Working solutions were prepared by diluting each stock solution with 99 times the volume of dilution buffer, that is, by adding 1 µL of the 10 mM stock solution to 99 µL of the dilution buffer and mixing thoroughly.
Finally, […] of the working solution was added to the cell-seeded culture plate. The final concentration of DMSO in the cell culture medium was 0.2%, and the final concentration of the test compounds ranged from 1 nM to 100 nM. The cells were then incubated at 37 °C for 6 hours.
The culture medium was removed, and the cells were washed twice with ice cold PBS. 1 mL of PBS was added to each well, and the cells were collected into EP tubes using a cell scraper, and centrifuged at 4 °C, 4000 rpm for 5 minutes. PBS was aspirated. Total protein was extracted using the Minute™ Mammalian Tissue/Cell Total Protein Extraction Reagent. The protein concentration was measured using the BCA protein assay kit. 30 µg of protein was taken and mixed with 5× SDS-PAGE loading buffer, boiled for 10 minutes, and cooled. The samples were loaded into wells of a precast gel, with constant voltage at 80 V for 30 minutes, and then the voltage was changed to 120 V after the samples entered the resolving gel. The "sandwich" (sponge - filter paper - gel - membrane - filter paper - sponge) was assembled for Bio-Rad's Transblot. Transfer was performed for 1 hour at 0.3 amp at 4 °C. The sample was blocked with 5% fat-free milk for 1 hour, and incubated with Estrogen Receptor alpha Antibody (Thermo Fisher, catalog number MA5-14104) overnight at 4 °C. The membrane was washed with TBST to remove non-specifically bound antibodies, and then incubated with goat anti-mouse IgG-HRP secondary antibody for 1 hour at room temperature, and was visualized using ECL. The protein degradation level was calculated by measuring the grayscale intensity.
The DC50 values (i.e., the concentration of the test compounds required to degrade 50% of the target protein) were calculated and shown in Table 1. A corresponds to a DC50 value below 10 nM, B corresponds to a DC50 value greater than 10 nM and less than 100 nM, and C corresponds to DC50 values greater than 100 nM. Table 1. The DC50 values of exemplary compounds in MCF-7 cells
A general note: In western blotting, separated proteins are transferred to a membrane and probed.
Usually DC50 stands for the concentration giving 50% degradation. A higher DC50 goes with a less potent degrader. Molecule `CC1(C)CC(=C(c2ccc(N3CCN(CC4CN(c5ccc6c(c5)C(=O)N(C5CCC(=O)NC5=O)C6=O)C4)CC3)cc2)c2ccc3[nH]nc(F)c3c2)CC(C)(C)O1` (centres unmarked) [Compound 1] displayed a DC50 of over 100 nM.

Consider `CC1(C)CC(=C(c2ccc3[nH]nc(F)c3c2)c2c(F)cc(N3CCN(C4CN(c5ccc6c(c5)C(=O)N(C5CCC(=O)NC5=O)C6=O)C4)CC3)cc2F)CC(C)(C)O1` (centres unmarked) [Compound 3], for which the DC50 was over 100 nM.

With `CC1(C)CC(=C(c2ccc(N3CCN(CC4CCN(c5ccc6c(c5)C(=O)N(C5CCC(=O)NC5=O)C6=O)CC4)CC3)nc2)c2ccc3[nH]nc(F)c3c2)CC(C)(C)O1` (centres unmarked) [Compound 4], the DC50 was over 100 nM.

Molecule `CC1(C)CC(=C(c2ccc(OC3CN(CC4CCN(c5ccc6c(c5)C(=O)N(C5CCC(=O)NC5=O)C6=O)CC4)C3)nc2)c2ccc3[nH]nc(F)c3c2)CC(C)(C)O1` (centres unmarked) [Compound 7] returned a DC50 of 10 to 100 nM.

As for `CC1(C)CC(=C(c2ccc(OC3CN(CC4CCN(c5ccc6c(c5)C(=O)N(C5CCC(=O)NC5=O)C6=O)CC4)C3)cc2)c2ccc3[nH]nc(F)c3c2)CC(C)(C)O1` (centres unmarked) [Compound 8], the DC50 was over 100 nM.

Molecule `CC1(C)CC(=C(c2ccc3[nH]nc(F)c3c2)c2c(F)cc(N3CCN(CC4CN(c5ccc6c(c5)C(=O)N(C5CCC(=O)NC5=O)C6=O)C4)CC3)cc2F)CC(C)(C)O1` (centres unmarked) [Compound 9] had a DC50 of over 100 nM.

Consider `CC1(C)CC(=C(c2ccc3[nH]nc(F)c3c2)c2c(F)cc(N3CCN(C4CCN(c5ccc6c(c5)C(=O)N(C5CCC(=O)NC5=O)C6=O)CC4)CC3)cc2F)CC(C)(C)O1` (centres unmarked) [Compound 10], for which the DC50 is over 100 nM.

Consider `CC1(C)CC(=C(c2ccc3[nH]nc(F)c3c2)c2c(F)cc(N3CCC(N4CCN(c5ccc6c(c5)C(=O)N(C5CCC(=O)NC5=O)C6=O)CC4)CC3)cc2F)CC(C)(C)O1` (centres unmarked) [Compound 11], for which the DC50 was under 10 nM.

As for `CC1(C)CC(=C(c2ccc3[nH]nc(F)c3c2)c2c(F)cc(N3CCC(CN4CCN(c5ccc6c(c5)C(=O)N(C5CCC(=O)NC5=O)C6=O)CC4)CC3)cc2F)CC(C)(C)O1` (centres unmarked) [Compound 12], the DC50 lay within 10 to 100 nM.

The molecule `CC1(C)CC(=C(c2ccc(N3CC(N4CCN(c5ccc6c(c5)C(=O)N(C5CCC(=O)NC5=O)C6=O)CC4)C3)cc2)c2ccc3[nH]nc(F)c3c2)CC(C)(C)O1` (centres unmarked) [Compound 13] registered a half-maximal degradation concentration (DC50) of over 100 nM.

`CC1(C)CC(=C(c2ccc3[nH]nc(F)c3c2)c2c(F)cc(OC3CN(C4CN(c5ccc6c(c5)C(=O)N(C5CCC(=O)NC5=O)C6=O)C4)C3)cc2F)CC(C)(C)O1` (centres unmarked) [Compound 14]: the DC50 was over 100 nM.

With `CC1(C)CC(=C(c2ccc3[nH]nc(F)c3c2)c2c(F)cc(N3CC(CN4CCN(c5ccc6c(c5)C(=O)N(C5CCC(=O)NC5=O)C6=O)CC4)C3)cc2F)CC(C)(C)O1` (centres unmarked) [Compound 15], the DC50 fell in the range of 10 to 100 nM.

The molecule `CC1(C)CC(=C(c2ccc(OCCN3CCN(c4ccc5c(c4)C(=O)N(C4CCC(=O)NC4=O)C5=O)CC3)cc2)c2ccc3[nH]nc(F)c3c2)CC(C)(C)O1` (centres unmarked) [Compound 16] registered a DC50 of over 100 nM.

Turning to `CC1(C)CC(=C(c2ccc(N3CC(CN4CCN(c5ccc6c(c5)C(=O)N(C5CCC(=O)NC5=O)C6=O)CC4)C3)cc2)c2ccc3[nH]nc(F)c3c2)CC(C)(C)O1` (centres unmarked) [Compound 17], the DC50 was over 100 nM.

Turning to `CC1(C)CC(=C(c2ccc(OC3CN(C4CCN(c5ccc6c(c5)C(=O)N(C5CCC(=O)NC5=O)C6=O)CC4)C3)nc2)c2ccc3[nH]nc(F)c3c2)CC(C)(C)O1` (centres unmarked) [Compound 18], the DC50 is over 100 nM.

The molecule `CC1(C)CC(=C(c2ccc(OC3CN(C4CN(c5ccc6c(c5)C(=O)N(C5CCC(=O)NC5=O)C6=O)C4)C3)nc2)c2ccc3[nH]nc(F)c3c2)CC(C)(C)O1` (centres unmarked) [Compound 19] came in with a 50% degradation concentration (DC50) of over 100 nM.

Regarding `CC1(C)CC(=C(c2ccc(OC3CN(C4CCN(c5ccc6c(c5)C(=O)N(C5CCC(=O)NC5=O)C6=O)CC4)C3)cc2)c2ccc3[nH]nc(F)c3c2)CC(C)(C)O1` (centres unmarked) [Compound 20], the DC50 was over 100 nM.

Molecule `CC1(C)CC(=C(c2ccc(OC3CN(C4CN(c5ccc6c(c5)C(=O)N(C5CCC(=O)NC5=O)C6=O)C4)C3)cc2)c2ccc3[nH]nc(F)c3c2)CC(C)(C)O1` (centres unmarked) [Compound 21] returned a DC50 of over 100 nM.

In the case of `CC1(C)CC(=C(c2ccc3[nH]nc(F)c3c2)c2c(F)cc(OCCN3CCN(c4ccc5c(c4)C(=O)N(C4CCC(=O)NC4=O)C5=O)CC3)cc2F)CC(C)(C)O1` (centres unmarked) [Compound 23], the 50% degradation concentration (DC50) was over 100 nM.

Molecule `CC1(C)CC(=C(c2ccc3[nH]nc(F)c3c2)c2c(F)cc(OC3CN(CC4CCN(c5ccc6c(c5)C(=O)N(C5CCC(=O)NC5=O)C6=O)CC4)C3)cc2F)CC(C)(C)O1` (centres unmarked) [Compound 24] had a DC50 of 10 to 100 nM.

`CC1(C)CC(=C(c2ccc3[nH]nc(F)c3c2)c2c(F)cc(OC3CN(C4CCN(c5ccc6c(c5)C(=O)N(C5CCC(=O)NC5=O)C6=O)CC4)C3)cc2F)CC(C)(C)O1` (centres unmarked) [Compound 25]: the 50% degradation concentration (DC50) is over 100 nM.

Turning to `CC1(C)CC(=C(c2ccc3[nH]nc(F)c3c2)c2c(F)cc(OC3CN(CC4CN(c5ccc6c(c5)C(=O)N(C5CCC(=O)NC5=O)C6=O)C4)C3)cc2F)CC(C)(C)O1` (centres unmarked) [Compound 26], the DC50 is under 10 nM.

`CC1(C)CC(=C(c2ccc(N3CC(CN4CCN(c5ccc6c(c5)C(=O)N(C5CCC(=O)NC5=O)C6=O)CC4)C3)nc2)c2ccc3[nH]nc(F)c3c2)CC(C)(C)O1` (centres unmarked) [Compound 27] had a 50% degradation concentration (DC50) of 10 to 100 nM.

The molecule `CC1(C)CC(=C(c2ccc(OCCN3CCN(c4ccc5c(c4)C(=O)N(C4CCC(=O)NC4=O)C5=O)CC3)nc2)c2ccc3[nH]nc(F)c3c2)CC(C)(C)O1` (centres unmarked) [Compound 28] displayed a DC50 of over 100 nM.

On to `CC1(C)CC(=C(c2ccc3[nH]nc(F)c3c2)c2c(F)cc(N3CC(N4CCN(c5ccc6c(c5)C(=O)N(C5CCC(=O)NC5=O)C6=O)CC4)C3)cc2F)CC(C)(C)O1` (centres unmarked) [Compound 29], for which the DC50 was over 100 nM.

`CC1(C)CC(=C(c2ccc(OC3CN(CC4CN(c5ccc6c(c5)C(=O)N(C5CCC(=O)NC5=O)C6=O)C4)C3)nc2)c2ccc3[nH]nc(F)c3c2)CC(C)(C)O1` (centres unmarked) [Compound 30] registered a DC50 of over 100 nM.

Regarding `CC1(C)CC(=C(c2ccc(OC3CN(CC4CN(c5ccc6c(c5)C(=O)N(C5CCC(=O)NC5=O)C6=O)C4)C3)cc2)c2ccc3[nH]nc(F)c3c2)CC(C)(C)O1` (centres unmarked) [Compound 32], the DC50 was over 100 nM.

As to `CC1(C)CC(=C(c2ccc(N3CCC(CN4CCN(c5ccc6c(c5)CN(C5CCC(=O)NC5=O)C6=O)CC4)CC3)nc2)c2ccc3[nH]ncc3c2)CC(C)(C)O1` (centres unmarked) [Compound 39], the half-maximal degradation concentration (DC50) is under 10 nM.

As for `CC1(C)CC(=C(c2ccc(N3CC(CN4CCN(c5ccc6c(c5)CN(C5CCC(=O)NC5=O)C6=O)CC4)C3)nc2)c2ccc3[nH]nc(F)c3c2)CC(C)(C)O1` (centres unmarked) [Compound 40], the half-maximal degradation concentration (DC50) was over 100 nM.

Molecule `CC1(C)CC(=C(c2ccc(N3CCC(CN4CCN(c5ccc6c(c5)CN(C5CCC(=O)NC5=O)C6=O)CC4)CC3)cc2)c2ccc3[nH]nc(F)c3c2)CC(C)(C)O1` (centres unmarked) [Compound 41] registered a DC50 of 10 to 100 nM.

`CC1(C)CC(=C(c2ccc(N3CCC4(CC3)CC(N3CC5(CN(c6ccc7c(c6)CN(C6CCC(=O)NC6=O)C7=O)C5)C3)C4)nc2)c2ccc3[nH]nc(F)c3c2)CC(C)(C)O1` (centres unmarked) [Compound 43] displayed a DC50 of over 100 nM.

Turning to `CN(CC1CCN(c2ccc(C(=C3CC(C)(C)OC(C)(C)C3)c3ccc4[nH]nc(F)c4c3)cn2)CC1)C1CCN(c2ccc3c(c2)CN(C2CCC(=O)NC2=O)C3=O)CC1` (centres unmarked) [Compound 45], the DC50 lay in the range of 10 to 100 nM.
